# Test results as given in US20260013442A1, “METHOD FOR VEGETATIVE PROPAGATION OF PLANTS” (LETAVIS AB, priority 2020, published 2026).
# Tests used:
# [1] = system: cuttings from rose No. 1 (garden rose bush); assay: Callus/root formation on cuttings from rose No. 1 in oxytocin solution; type: in vivo; details: for Grading of callus formation: grading 0-8
# Protocol: (§1) Cuttings, about 7 cm long, from the top of a branch of two different roses (rose No. 1 and rose No. 2) and cut directly under a node were put into 100 ml Erlenmeyer flasks with concentrations of oxytocin from 0 to 10 μM (0, 0.5, 1, 2.5, 5 and 10 μM) in tap water. Two cuttings were added to each Erlenmeyer flask. Thereafter, the Erlenmeyer flasks were placed in a growing room under a light intensity of 800 μmol*m^−2*s^−1.
# Cuttings in this experiment were taken from a garden rose bush. […] A grading of the effect of different oxytocin concentrations on the formation of callus from the cuttings can be seen in Table 1. Callus can easily be explained as an accumulation of cells that has not developed into any specific tissue, such as root tissues. Best coverage of callus on the cutting surface of the cuttings was obtained at a concentration of oxytocin of 2.5 μM (FIG. 1).
# [2] = system: cuttings from rose No. 2 (mini rose); assay: Callus/root formation on cuttings from rose No. 2 in oxytocin solution; type: in vivo; details: for Grading of callus formation: grading 0-8
# Protocol: as §1
# Cuttings in this experiment was taken from the small rose bushes in pot bought in a flower shop (mini rose), and put into Erlenmeyer flasks. […] Best effect was obtained at 10 μM oxytocin, followed closely by 2.5 μM oxytocin.
# Vigorous development of callus indicates high potential for root formation. To study this effect, the Erlenmeyer flasks with the cuttings from the experiment with rose No. 2 have been covered with aluminium foil.
# [3] = system: cut flowers of roses of the variety Furiosa; assay: Root growth of stalks of cut flowers of the variety Furiosa; type: in vivo, rose
# Protocol: Cut flowers of roses of the variety Furiosa, which had obtained at least 2 side shoots from the stalk, were put in water to allow the side shoots to continue to grow. When the side shoots had reached a length of about 5 cm, the stalk was cut by some mm under the lowest side shoot, which was also removed from the stalk. The stalks were then put into 100 ml Erlenmeyer flasks with either water alone or an oxytocin solution. The solution contained either 1, 4 or 8 μM oxytocin. The liquid in the Erlenmeyer flasks was darkened by coating the flasks with aluminium foil. The flasks were placed in daylight.
# [4] = system: cuttings from hibiscuses; assay: Effect of oxytocin on cuttings of hibiscus; type: in vivo; details: 90 days
# Excerpt: […] Five cuttings per treatment were used.
# The flasks were covered with aluminum foil and the flasks were kept at room temperature in a window.
# The experiment was allowed to run for 90 days whereafter the development of calluses and roots was documented.
# [5] = system: rose cuttings; assay: Effect of different concentrations of oxytocin on cuttings of roses (58 days); type: in vivo; details: for Total No. roots: 4 E-flasks with 2 cuttings; for Number of cuttings with roots / Number of living cuttings / Per cutting No. roots / Per cutting Number of side shoots >10 mm / Per cutting mm root / Vitality: n = 8; for Vitality: grading 0-5
# Protocol: On Feb. 11, 2020, cuttings from purchased pots with roses were put into 100 ml Erlenmeyer flasks (E-flasks) with a concentration of oxytocin from 0 to 50 μM (0, 0.5, 1, 5, 10, 20 and 50 μM). The experiment consisted of four E-flasks per concentration with two cuttings in each E-flask. The E-flasks were covered with aluminum foil and placed in a culture room. From day 45, measurements were made every 4-5 days. At day 58, the trial was interrupted.
# [6] = system: potato tubers of the summer variety Perlo; assay: Potato tubers treated with oxytocin before pre-sprouting in sunlight; type: in vivo; details: nineteen days of pre-sprouting
# Protocol: Potato tubers of the summer variety Perlo were pre-sprouting in sunlight after treatment with either tap water, 1 μM oxytocin or 10 μm oxytocin for 6 or 24 hours. For each treatment, 8 tubers were treated by placing them in plastic vessels and covered them with the respective test solution. After treatment, the tubers were pre-sprouted in sunlight at about 20° C. Nineteen days later, the number of sprouts were counted for each tuber and the length per sprout was measured.
# [7] = 5 μM oxytocin, 31 days, 2 cuttings
substance,measurement,setting,value
oxytocin,Grading of callus formation,"[1]; 0.5 μM oxytocin, 31 days, 2 cuttings",6
same,Grading of callus formation,"[1]; 1 μM oxytocin, 31 days, 2 cuttings",4
same,Grading of callus formation,"[1]; 2.5 μM oxytocin, 31 days, 2 cuttings",7
same,small roots formed,[1]; [7],one
same,Grading of callus formation,[1]; [7],6
same,length of root developed from callus,"[1]; 5 μM oxytocin, one of the two cuttings",2-3 mm
same,Grading of callus formation,"[1]; 10 μM oxytocin, 31 days, 2 cuttings",5
same,leaf aging,[1]; 5-10 μM oxytocin,inhibit leaf aging
same,concentration with best coverage of callus on the cutting surface,"[1]; 31 days, tested 0-10 μM",2.5 µM
same,Grading of callus formation,"[2]; 0.5 μM oxytocin, 24 days, 2 cuttings",2
same,root formation,"[2]; 0.5 μM oxytocin, nineteen days after day 24, flasks covered with aluminium foil",roots had been formed in all treatments except in 0.5 μM oxytocin
same,Grading of callus formation,"[2]; 1 μM oxytocin, 24 days, 2 cuttings",3
same,Grading of callus formation,"[2]; 2.5 μM oxytocin, 24 days, 2 cuttings",6
same,Grading of callus formation,"[2]; 5 μM oxytocin, 24 days, 2 cuttings",1
same,cuttings showing root development,"[2]; 5 μM oxytocin, nineteen days after day 24, 2 cuttings",one of the two cuttings
same,Grading of callus formation,"[2]; 10 μM oxytocin, 24 days, 2 cuttings",7
same,development of roots from cuttings,[2]; 1-10 μM oxytocin,stimulated the development of roots
same,root development,"[2]; 2.5 and 10 μM oxytocin, nineteen days after day 24",Root development was best
same,leaf aging,[2]; 5-10 μM oxytocin,inhibit leaf aging
same,concentration with best effect on development of callus,"[2]; 24 days, tested 0-10 μM",10 µM
same,root quality of stalk,"[3]; 1 μM oxytocin, one month after the 2.5 months",showed the best root
same,survival of stalks,"[3]; 4 μM oxytocin, one month after the 2.5 months, secondary fungal growth",had died due to a secondary fungal growth
same,root formation on stalks,"[3]; 1, 4 or 8 μM oxytocin, after about 2.5 months, untreated had died",obtained roots
same,root growth on stalks,"[3]; 1 and 8 μM oxytocin, one month after the 2.5 months",roots had grown much longer
same,Number of cuttings that had developed calluses,"[4]; 1 μM oxytocin, five cuttings",One
same,Number of cuttings that had developed a root,"[4]; 5 μM oxytocin, five cuttings",one
same,Number of cuttings that had developed calluses,"[4]; 5 μM oxytocin, five cuttings",One
same,root length,"[4]; 5 μM oxytocin, one cutting",~2 mm
same,Number of cuttings that had developed calluses,"[4]; 10 μM oxytocin, five cuttings",two
same,Root length Mean length,"[5]; 0.5 μM oxytocin, 58 days",13.3 mm
same,Total No. roots,"[5]; 0.5 μM oxytocin, 58 days",26
same,Number of cuttings with roots,"[5]; 0.5 μM oxytocin, 58 days",5
same,Number of living cuttings,"[5]; 0.5 μM oxytocin, 58 days",7
same,Per cutting No. roots,"[5]; 0.5 μM oxytocin, 58 days",3.3
same,Per cutting Number of side shoots >10 mm,"[5]; 0.5 μM oxytocin, 58 days",0.4
same,Per cutting mm root,"[5]; 0.5 μM oxytocin, 58 days",43 mm
same,Vitality,"[5]; 0.5 μM oxytocin, 58 days",2.6
same,Root length Mean length,"[5]; 1 μM oxytocin, 58 days",17.4 mm
same,Total No. roots,"[5]; 1 μM oxytocin, 58 days",55
same,Number of cuttings with roots,"[5]; 1 μM oxytocin, 58 days",6
same,Number of living cuttings,"[5]; 1 μM oxytocin, 58 days",8
same,Per cutting No. roots,"[5]; 1 μM oxytocin, 58 days",6.9
same,Per cutting Number of side shoots >10 mm,"[5]; 1 μM oxytocin, 58 days",1
same,Per cutting mm root,"[5]; 1 μM oxytocin, 58 days",119 mm
same,Vitality,"[5]; 1 μM oxytocin, 58 days",3.5
same,time after which all cuttings had developed roots,[5]; 5 μM oxytocin,50 days
same,Root length Mean length,"[5]; 5 μM oxytocin, 58 days",11.6 mm
same,Total No. roots,"[5]; 5 μM oxytocin, 58 days",51
same,Number of cuttings with roots,"[5]; 5 μM oxytocin, 58 days",7
same,Number of living cuttings,"[5]; 5 μM oxytocin, 58 days",7
same,Per cutting No. roots,"[5]; 5 μM oxytocin, 58 days",6.4
same,Per cutting Number of side shoots >10 mm,"[5]; 5 μM oxytocin, 58 days",0.6
same,Per cutting mm root,"[5]; 5 μM oxytocin, 58 days",76 mm
same,Vitality,"[5]; 5 μM oxytocin, 58 days",2.5
same,cuttings that had developed roots,"[5]; 5 μM oxytocin, day 45",five out of seven
same,"delay until all cuttings had roots, compared with 5 μM oxytocin",[5]; 10 μM and 50 μM oxytocin,4 to 8 days
same,Root length Mean length,"[5]; 10 μM oxytocin, 58 days",11.4 mm
same,Total No. roots,"[5]; 10 μM oxytocin, 58 days",46
same,Number of cuttings with roots,"[5]; 10 μM oxytocin, 58 days",7
same,Number of living cuttings,"[5]; 10 μM oxytocin, 58 days",7
same,Per cutting No. roots,"[5]; 10 μM oxytocin, 58 days",5.8
same,Per cutting Number of side shoots >10 mm,"[5]; 10 μM oxytocin, 58 days",0.5
same,Per cutting mm root,"[5]; 10 μM oxytocin, 58 days",66 mm
same,Vitality,"[5]; 10 μM oxytocin, 58 days",2.9
same,Root length Mean length,"[5]; 20 μM oxytocin, 58 days",12.7 mm
same,Total No. roots,"[5]; 20 μM oxytocin, 58 days",46
same,Number of cuttings with roots,"[5]; 20 μM oxytocin, 58 days",5
same,Number of living cuttings,"[5]; 20 μM oxytocin, 58 days",6
same,Per cutting No. roots,"[5]; 20 μM oxytocin, 58 days",5.8
same,Per cutting Number of side shoots >10 mm,"[5]; 20 μM oxytocin, 58 days",0.5
same,Per cutting mm root,"[5]; 20 μM oxytocin, 58 days",72 mm
same,Vitality,"[5]; 20 μM oxytocin, 58 days",2.3
same,Root length Mean length,"[5]; 50 μM oxytocin, 58 days",10.0 mm
same,Total No. roots,"[5]; 50 μM oxytocin, 58 days",52
same,Number of cuttings with roots,"[5]; 50 μM oxytocin, 58 days",8
same,Number of living cuttings,"[5]; 50 μM oxytocin, 58 days",8
same,Per cutting No. roots,"[5]; 50 μM oxytocin, 58 days",6.5
same,Per cutting Number of side shoots >10 mm,"[5]; 50 μM oxytocin, 58 days",0.4
same,Per cutting mm root,"[5]; 50 μM oxytocin, 58 days",65 mm
same,Vitality,"[5]; 50 μM oxytocin, 58 days",3.5
same,cuttings that had developed callus,"[5]; 50 μM oxytocin, day 45",all cuttings
same,cuttings that had calluses,"[5]; 1, 5 and 10 μM oxytocin, day 45",all but one of the living cuttings
same,concentration giving most roots and longest total length of roots per cutting,[5]; 6 cuttings per concentration (FIG. 7),1 µM
same,concentration most potent for callus and roots at nodes higher up on the stem,"[5]; 58 days, tested 0-50 μM",20 µM
same,"total amount of roots formed, average over concentrations","[5]; concentrations of 1 M and above, 58 days, compared to 30 at 0 μM",50.5 mm
same,percentage increase of long sprouts (over 5 mm) compared to tap water for 6 hours,[6]; 1 μM oxytocin for 6 hours,124%
same,percentage increase in number of shoots compared to tap water for 6 hours,[6]; 1 μM oxytocin for 24 hours,34.6%
same,percentage increase of long sprouts (over 5 mm) compared to tap water for 6 hours,[6]; 1 μM oxytocin for 24 hours,112.5%
same,percentage increase of long sprouts (over 5 mm) compared to tap water for 6 hours,[6]; 10 μM oxytocin for 6 hours,100%
same,percentage increase in number of shoots compared to tap water for 6 hours,[6]; 10 μM oxytocin for 24 hours,37.5%
